Measurements as given in patent US10945971B2, “Sphingosine kinase type 1 inhibitors and uses thereof” (Enzo Therapeutics, Inc., priority 2008, dated 2021).

Columns and labels:
U373 cells = assay: Modulation of SK1-I lethality by signaling inhibitors, U373 cells; format: cell-based, human; details: U373, combined with SK1-I
Experimental: (§1) Cells were plated at 10,000 cells/well in 48-well plates and allowed to attach for 24 h. Cell proliferation was measured at the indicated times with WST-1 and absorbance was measured in a plate reader at 450 nm with background subtraction at 630 nm. Cell death was detected by trypan blue exclusion assays in which the percent of blue dye incorporating cells were determined using a light microscope and a hemacytometer as described (Yacoub et al. Mol Cancer Ther 7:314-329, 2008). Apoptotic cell death was measured by staining cell nuclei with the Hoechst dye bisbenzimide and apoptotic cells were identified by condensed, fragmented nuclear regions as described previously (Sankala et al. Cancer Res 67:10466-10474, 2007). A minimum of 300 cells was scored.

LN229 cells = format: cell-based; details: LN229, combined with SK1-I
Experimental: as §1

Structure (SMILES)	effect on SK1-I lethality (U373 cells)	effect on SK1-I lethality (LN229 cells)
Oc1ccc(-c2nc(-c3ccncc3)c(-c3ccc(F)cc3)[nH]2)cc1 [SB202190]	enhanced	enhanced
N#CC(=C(/N)Sc1ccccc1N)/C(C#N)=C(\N)Sc1ccccc1N [U0126]	enhanced	enhanced
